From US20110190348A1, “METHODS FOR TREATING CNS DISORDERS” (priority 2008, published 2011)

What was measured:
[1] = test system: Male NMRI mice; assay: Forced swimming test (FST); format: in vivo; conditions: doses of 5 and 10 mg/kg p.o., may be a false positive from nonspecific stimulatory effect
Experimental: The aim of this study was to evaluate the antidepressant activity of radiprodil. The forced swimming test is a behavioral assay that can be used to predict antidepressant efficacy of drugs in humans.
(§1) Male NMRI mice weighing 24-26 g were used. The animals were kept in polycarbonate cages in a thermostatically controlled room at 24+2° C. and at a relative humidity (RH) of 50±10%. The room was artificially illuminated from 6 am to 6 pm and the mice were given commercial pellet rat-mouse feed, autoclaved at 105° C. and sterile filtered tap water, ad libitum.
(§2) An aqueous solution of radiprodil, in the form of a complex with heptakis(2,6-di-O-methyl)-β-cyclodextrin(DIMEB), was administered orally at doses of 2.5, 5 and 10 mg/kg (calculated for non-complexed radiprodil). […]
The forced swimming test (FST) was measured in glass cylinders (height: […], diameter 14 cm) containing 12 cm of water, maintained at 23-25° C. […] The duration of immobility was recorded using a stopwatch. […]
In the forced swimming test, the mean±standard error on the mean (s.e.m) immobility time in seconds was measured. […] The mean (±s.e.m) “FST-activity” value was also calculated for each group and submitted to the same data analysis process as the immobility data.
The significance of the drug effect was determined by ANOVA followed by post-hoc Duncan-test. […]

[2] = test system: Male NMRI mice; assay: Spontaneous locomotor activity; format: in vivo; conditions: doses of 5 and 10 mg/kg p.o.
Experimental: as §1, §2
Spontaneous locomotor activity was measured in a four-channel activity monitor manufactured by Farmakotechnika (Hungary). […] The photocell beam, when broken, signaled a count, which was then recorded by a computer.
Each group consisted of 10 animals. […] The horizontal and vertical movements were determined as the number of beam interruptions collected in 15 minute intervals throughout the 1 hour period.
In the spontaneous locomotor activity test, the mean (±s.e.m) value of one hour horizontal activity data (in counts) of each group was calculated.
The significance of the drug effect was determined by ANOVA followed by post-hoc Duncan-test. The percentage change in the horizontal activity, immobility or “FST-activity” variables were calculated for each dose according to the equation; […]

## O=C(Nc1ccc2[nH]c(=O)oc2c1)C(=O)N1CCC(Cc2ccc(F)cc2)CC1 [radiprodil, 2-[4-(4-fluoro-benzyl)-piperidine-1-yl]-2-oxo-N-(2-oxo-2,3-dihydro-benzoxazol-6-yl)acetamide]
[1]
  effect in the forced swimming test (in words): significant effects
[2]
  effect on spontaneous motor activity (in words): stimulated the spontaneous motor activity
